Measurements reported in PubChem BioAssay (NCI).
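Method: 48-hour compound exposure of cells in 96-well plates, five concentrations, linear interpolation of endpoints. Here, GI50 denotes the concentration required for 50% inhibition of growth. TGI is the concentration that stops growth completely.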

Experiments:
Test in all cases: NCI-60 cell line screen, 48 h
786-0 renal = test system: 786-0 renal
A498 renal = test system: A498 renal
A549 NSCLC = test system: A549 NSCLC
ACHN renal = test system: ACHN renal
BT-549 breast = test system: BT-549 breast
CAKI-1 renal = test system: CAKI-1 renal
CCRF-CEM leukemia = test system: CCRF-CEM leukemia
COLO 205 colon = test system: COLO 205 colon
DU-145 prostate = test system: DU-145 prostate
EKVX NSCLC = test system: EKVX NSCLC
HCC-2998 colon = test system: HCC-2998 colon
HCT-116 colon = test system: HCT-116 colon
HCT-15 colon = test system: HCT-15 colon
HL-60(TB) leukemia = test system: HL-60(TB) leukemia
HOP-62 NSCLC = test system: HOP-62 NSCLC
HOP-92 NSCLC = test system: HOP-92 NSCLC
HS 578T breast = test system: HS 578T breast
HT29 colon = test system: HT29 colon
IGROV1 ovarian = test system: IGROV1 ovarian
K-562 leukemia = test system: K-562 leukemia
KM12 colon = test system: KM12 colon
LOX IMVI melanoma = test system: LOX IMVI melanoma
M14 melanoma = test system: M14 melanoma
MALME-3M melanoma = test system: MALME-3M melanoma
MCF7 breast = test system: MCF7 breast
MDA-MB-231 breast = test system: MDA-MB-231 breast
MDA-MB-435 = test system: MDA-MB-435
MOLT-4 leukemia = test system: MOLT-4 leukemia
NCI-H226 lung = test system: NCI-H226 lung
NCI-H23 lung = test system: NCI-H23 lung
NCI-H460 lung = test system: NCI-H460 lung
NCI-H522 lung = test system: NCI-H522 lung
NCI/ADR-RES ovarian = test system: NCI/ADR-RES ovarian
OVCAR-3 ovarian = test system: OVCAR-3 ovarian
OVCAR-4 ovarian = test system: OVCAR-4 ovarian
OVCAR-5 ovarian = test system: OVCAR-5 ovarian
OVCAR-8 ovarian = test system: OVCAR-8 ovarian
PC-3 prostate = test system: PC-3 prostate
RPMI-8226 leukemia = test system: RPMI-8226 leukemia
RXF 393 renal = test system: RXF 393 renal
SF-268 CNS = test system: SF-268 CNS
SF-295 CNS = test system: SF-295 CNS
SF-539 CNS = test system: SF-539 CNS
SK-MEL-2 melanoma = test system: SK-MEL-2 melanoma
SK-MEL-28 melanoma = test system: SK-MEL-28 melanoma
SK-MEL-5 melanoma = test system: SK-MEL-5 melanoma
SK-OV-3 ovarian = test system: SK-OV-3 ovarian
SN12C renal = test system: SN12C renal
SNB-19 CNS = test system: SNB-19 CNS
SNB-75 CNS = test system: SNB-75 CNS
SW-620 colon = test system: SW-620 colon
T-47D breast = test system: T-47D breast
TK-10 renal = test system: TK-10 renal
U251 CNS = test system: U251 CNS
UACC-257 melanoma = test system: UACC-257 melanoma
UACC-62 melanoma = test system: UACC-62 melanoma
UO-31 renal = test system: UO-31 renal

Which results are given for `COc1cccc2c1[C@H](OC)[C@]13O[C@@]1(C2=O)[C@H](O)[C@H](C)[C@@](O)(C(=O)[C@@H]1O[C@H]1C)[C@@H]3O`?
GI50 (786-0 renal): 298 nM; TGI (786-0 renal): 2060 nM; GI50 (A498 renal): 215 nM; TGI (A498 renal): 542 nM; GI50 (A549 NSCLC): 297 nM; TGI (A549 NSCLC): 10700 nM; GI50 (ACHN renal): 283 nM; TGI (ACHN renal): 820 nM; TGI (BT-549 breast): 838 nM; TGI (CAKI-1 renal): 909 nM; GI50 (CCRF-CEM leukemia): 323 nM; TGI (CCRF-CEM leukemia): > 100000 nM; GI50 (COLO 205 colon): 239 nM; TGI (COLO 205 colon): 592 nM; TGI (DU-145 prostate): 1130 nM; GI50 (EKVX NSCLC): 235 nM; TGI (EKVX NSCLC): 655 nM; GI50 (HCC-2998 colon): 215 nM; TGI (HCC-2998 colon): 485 nM; TGI (HCT-116 colon): 1310 nM; GI50 (HCT-15 colon): 313 nM; TGI (HCT-15 colon): 1090 nM; GI50 (HL-60(TB) leukemia): 238 nM; TGI (HL-60(TB) leukemia): 696 nM; GI50 (HOP-62 NSCLC): 316 nM; TGI (HOP-62 NSCLC): 1790 nM; GI50 (HOP-92 NSCLC): 223 nM; TGI (HOP-92 NSCLC): 717 nM; GI50 (HS 578T breast): 283 nM; TGI (HS 578T breast): 962 nM; GI50 (HT29 colon): 321 nM; TGI (HT29 colon): 1580 nM; GI50 (IGROV1 ovarian): 295 nM; TGI (IGROV1 ovarian): 894 nM; GI50 (K-562 leukemia): 326 nM; TGI (K-562 leukemia): > 100000 nM; TGI (KM12 colon): 1710 nM; GI50 (LOX IMVI melanoma): 180 nM; TGI (LOX IMVI melanoma): 351 nM; TGI (M14 melanoma): 534 nM; GI50 (MALME-3M melanoma): 200 nM; TGI (MALME-3M melanoma): 436 nM; TGI (MCF7 breast): 1120 nM; GI50 (MDA-MB-231 breast): 237 nM; TGI (MDA-MB-231 breast): 657 nM; GI50 (MDA-MB-435): 286 nM; TGI (MDA-MB-435): 812 nM; GI50 (MOLT-4 leukemia): 335 nM; GI50 (NCI-H226 lung): 275 nM; TGI (NCI-H226 lung): 802 nM; GI50 (NCI-H23 lung): 243 nM; TGI (NCI-H23 lung): 611 nM; GI50 (NCI-H460 lung): 326 nM; TGI (NCI-H460 lung): 1270 nM; GI50 (NCI-H522 lung): 264 nM; TGI (NCI-H522 lung): 803 nM; TGI (NCI/ADR-RES ovarian): 1180 nM; TGI (OVCAR-3 ovarian): 824 nM; GI50 (OVCAR-4 ovarian): 246 nM; TGI (OVCAR-4 ovarian): 642 nM; TGI (OVCAR-5 ovarian): 859 nM; GI50 (OVCAR-8 ovarian): 317 nM; TGI (OVCAR-8 ovarian): > 100000 nM; GI50 (PC-3 prostate): 304 nM; TGI (PC-3 prostate): 1110 nM; GI50 (RPMI-8226 leukemia): 303 nM; TGI (RPMI-8226 leukemia): 866 nM; GI50 (RXF 393 renal): 203 nM; TGI (RXF 393 renal): 461 nM; GI50 (SF-268 CNS): 295 nM; TGI (SF-268 CNS): 1030 nM; GI50 (SF-295 CNS): 285 nM; TGI (SF-295 CNS): 943 nM; TGI (SF-539 CNS): 698 nM; GI50 (SK-MEL-2 melanoma): 230 nM; TGI (SK-MEL-2 melanoma): 542 nM; GI50 (SK-MEL-28 melanoma): 271 nM; TGI (SK-MEL-28 melanoma): 722 nM; GI50 (SK-MEL-5 melanoma): 223 nM; TGI (SK-MEL-5 melanoma): 507 nM; GI50 (SK-OV-3 ovarian): 345 nM; TGI (SK-OV-3 ovarian): 2430 nM; GI50 (SN12C renal): 197 nM; TGI (SN12C renal): 691 nM; TGI (SNB-19 CNS): 1060 nM; TGI (SNB-75 CNS): 605 nM; GI50 (SW-620 colon): 306 nM; TGI (SW-620 colon): > 36000 nM; TGI (T-47D breast): 1860 nM; GI50 (TK-10 renal): 261 nM; TGI (TK-10 renal): 921 nM; TGI (U251 CNS): > 33000 nM; GI50 (UACC-257 melanoma): 270 nM; TGI (UACC-257 melanoma): 818 nM; GI50 (UACC-62 melanoma): 263 nM; TGI (UACC-62 melanoma): 765 nM; TGI (UO-31 renal): 800 nM
